# In patent US5470836A, “Paromomycin or its derivatives or salts thereof in combination with sodium stirogluconate for parenteral treatment of human parasitic diseases” (priority 1988, dated 1995):
# Where “and” joins values, the source holds several entries; their conditions need not be identical. Equal values may be shown once. Entries after “also recorded” stand apart in the source; their conditions may differ.
# Experiments:
# [1] = tested on: visceral leishmaniasis (leishmaniasis amastigotes in spleen aspirates); assay: Randomised clinical trial in newly diagnosed visceral leishmaniasis: clinical and parasitologic cure (Example 2); format: in vivo, human; conditions: for Clinical cures, % / Clinical cures, No.: at termination, complete abatement of initial symptoms with marked reduction of spleen size; for Apparent cures, % / Apparent cures, No.: negative spleen aspirate smears at termination of treatment; for Failures, % / Failures, No.: partial cures and relapses; for Partial cures, % / Partial cures, No.: persistence of low parasite counts in terminal spleen aspirates; for Definite cures, % / Definite cures, No.: persisting clinical cure with negative spleen aspirates 6 months after termination; for Relapses, % / Relapses, No.: reappearance of leishmanial parasites after an apparent cure; for Mean treatment duration: treated until first negative spleen aspirate or for 20 consecutive days
# Protocol: (§1) Patients newly diagnosed with visceral leighmaniasis, confirmed by the presence of leishmaniasis amastigotes in spleen aspirates, were allocated randomly to groups subjected to the following treatments:
# (§2) 1) IV/IM sodium stibogluconate (SbV) 20 mg/kg body weight once per day;
# (§3) 2) IM paromomycin sulphate (PM) 14-16 mg/kg body weight once per day;
# (§4) 3) IV/IM sodium stibogluconate 20 mg/kg body weight once per day and paromomycin sulphate 14-16 mg/kg body weight once per day.
# (§5) All treatments were administered until the first negative spleen aspirate was obtained, or for 20 consecutive days regardless of aspirate findings.
# Exclusion criteria were: […]; known allergy to aminoglycoside compounds: pregnancy; haemoglobin assay below 40 g/l; abnormal prothrombin time; impaired liver or renal function; major concurrent infection; previous drug treatment for leishmaniasis; and spleen smear-parasite grading of less than 4+.
# (§6) The following procedures were conducted for patient assessment at intake and at suitable intervals during and after treatment: clinical history writeup: physical examination: body weight: chest X-ray: ECG tracing: liver and kidney function tests: blood picture and blood smears (to rule out malaria): complete urinalysis: stool examination: prothrombin time: and spleen aspirate smear examination by the method of Chulay & Bryceson, Quantitations of amastigotes of leishmania donovani in smears of splenic aspirates from patients with visceral leishmaniasis, American Journal of Tropical Medicine and Hygiene, 32, 1983, 475-479.
# Treatment of effectiveness was graded under the following headings:
# Clinical cure: complete abatement of initial symptoms with marked reduction of spleen size;
# Partial cure: persistence of low parasite counts in terminal spleen aspirates;
# Apparent cure: negative spleen aspirate smears at termination of treatment;
# Relapse: reappearance of leishmanial parasites after an apparent cure;
# Definite cure: persisting clinical cure with negative spleen aspirates 6 months after termination of treatment;
# Failures: partial cures and relapses.
# (§7) Drug safety was assessed for each treatment regime in terms of incidence of drug-related signs and symptoms and of laboratory test results return abnormalities. The assembled data were processed statistically by the Fisher's exact test (chi-square) and Pearson's correlation coefficient.
# visceral leishmaniasis [2] = assay: Clinical, haematologic and parasite indices during treatment and follow-up (Example 2); format: in vivo, human; conditions: mean
# Protocol: as §1, §2, §3, §4, §5, §6
# [3] = Drug safety: adverse effects and complications (Example 2); format: in vivo, human
# Protocol: as §1, §2, §3, §4, §5, §6, §7
# Kala-azar = conditions: 20 mg SbV/kg daily for 40 days; cited from earlier work
# [4] = Blood biochemistry during treatment and follow-up (Example 2); format: in vivo, human
# Protocol: as §2, §3, §4, §5, §6
# The assembled data were processed statistically by the Fisher's exact test (chi-square) and Pearson's correlation coefficient.
# visceral leishmaniasis [5] = conditions: parenteral, 20 mg/kg body weight over 30 days; cited from earlier work
molecule,measurement,setting,value
"NC[C@@H]1O[C@H](O[C@H]2[C@@H](O)[C@H](O[C@@H]3[C@@H](O)[C@H](N)C[C@H](N)[C@H]3O[C@H]3O[C@H](CO)[C@@H](O)[C@H](O)[C@H]3N)O[C@@H]2CO)[C@H](N)[C@@H](O)[C@@H]1O [PM, paromomycin sulphate]","Clinical cures, %",[1],100%
same,"Clinical cures, No.",[1],19 No.
same,incidence of relapses (in words),[1]; comparison of treatment groups,least incidence of relapses; also recorded: smallest share of relapses; also recorded: low rate of relapses
same,parasitologic effectiveness (in words),[1]; comparison of treatment groups,best results
same,share of partial cures (in words),[1]; comparison of treatment groups,highest share of partial cures
same,"Apparent cures, %",[1],84.2%
same,"Apparent cures, No.",[1],16 No.
same,"Failures, %",[1],21%
same,"Failures, No.",[1],4 No.
same,"Partial cures, %",[1],15.8%
same,"Partial cures, No.",[1],3 No.
same,"Definite cures, %",[1],79%
same,"Definite cures, No.",[1],15 No.
same,"Relapses, %",[1],5.2%
same,"Relapses, No.",[1],1 No.
same,Mean treatment duration,[1],19 days
same,Eosinophil count,visceral leishmaniasis [2]; Day 0 (intake),0 /cu mm
same,Heart rate,visceral leishmaniasis [2]; Day 0 (intake),105 min⁻¹
same,Hemoglobin assay,visceral leishmaniasis [2]; Day 0 (intake),7.1 g/dL
same,Parasite grading,visceral leishmaniasis [2]; Day 0 (intake),5
same,Spleen size,visceral leishmaniasis [2]; Day 0 (intake),15.5 cm
same,Temp,visceral leishmaniasis [2]; Day 0 (intake),38.3 °C
same,Weight,visceral leishmaniasis [2]; Day 0 (intake),34.0 kg
same,Eosinophil count,visceral leishmaniasis [2]; Day 20,2 /cu mm
same,Heart rate,visceral leishmaniasis [2]; Day 20,84 min⁻¹
same,Hemoglobin assay,visceral leishmaniasis [2]; Day 20,10.0 g/dL
same,Parasite grading,visceral leishmaniasis [2]; Day 20,1
same,Spleen size,visceral leishmaniasis [2]; Day 20,8.4 cm
same,Temp,visceral leishmaniasis [2]; Day 20,36.1 °C
same,Weight,visceral leishmaniasis [2]; Day 20,37.0 kg
same,Eosinophil count,visceral leishmaniasis [2]; Day 75,1 /cu mm
same,Heart rate,visceral leishmaniasis [2]; Day 75,82 min⁻¹
same,Hemoglobin assay,visceral leishmaniasis [2]; Day 75,12.3 g/dL
same,Parasite grading,visceral leishmaniasis [2]; Day 75,1
same,Spleen size,visceral leishmaniasis [2]; Day 75,4.3 cm
same,Temp,visceral leishmaniasis [2]; Day 75,36.1 °C
same,Weight,visceral leishmaniasis [2]; Day 75,39.1 kg
same,"Adverse effects, %",[3]; in vivo,0%
same,"Adverse effects, No.",[3]; in vivo,0 No.
same,antibiotic treatment needed for pneumonia,[3]; in vivo,did not need additional antibiotic medication
same,"bouts of pneumonia, cases",[3]; in vivo,4 cases
same,side effects (in words),[3]; in vivo,no side effects
sodium stibogluconate [SbV],failures,Kala-azar,8%
same,"Clinical cures, %",[1],100%
same,"Clinical cures, No.",[1],11 No.
same,parasitologic effectiveness (in words),[1]; comparison of treatment groups,by far the least effective of all
same,"Apparent cures, %",[1],90.9%
same,"Apparent cures, No.",[1],10 No.
same,"Failures, %",[1],45.5% and 45. %
same,"Failures, No.",[1],5 No.
same,"Partial cures, %",[1],9.1%
same,"Partial cures, No.",[1],1 No.
same,"Definite cures, %",[1],54.5%
same,"Definite cures, No.",[1],6 No.
same,"Relapses, %",[1],36.4%
same,"Relapses, No.",[1],4 No.
same,Mean treatment duration,[1],17 days
same,Eosinophil count,visceral leishmaniasis [2]; Day 0 (intake),0 /cu mm
same,Heart rate,visceral leishmaniasis [2]; Day 0 (intake),112 min⁻¹
same,Hemoglobin assay,visceral leishmaniasis [2]; Day 0 (intake),7.6 g/dL
same,Parasite grading,visceral leishmaniasis [2]; Day 0 (intake),5
same,Spleen size,visceral leishmaniasis [2]; Day 0 (intake),14.5 cm
same,Temp,visceral leishmaniasis [2]; Day 0 (intake),38.5 °C
same,Weight,visceral leishmaniasis [2]; Day 0 (intake),33.2 kg
same,Eosinophil count,visceral leishmaniasis [2]; Day 20,1 /cu mm
same,Heart rate,visceral leishmaniasis [2]; Day 20,92 min⁻¹
same,Hemoglobin assay,visceral leishmaniasis [2]; Day 20,8.9 g/dL
same,Parasite grading,visceral leishmaniasis [2]; Day 20,1
same,Spleen size,visceral leishmaniasis [2]; Day 20,7 cm
same,Temp,visceral leishmaniasis [2]; Day 20,36.2 °C
same,Weight,visceral leishmaniasis [2]; Day 20,27.3 kg
same,Eosinophil count,visceral leishmaniasis [2]; Day 75,1 /cu mm
same,Heart rate,visceral leishmaniasis [2]; Day 75,80 min⁻¹
same,Hemoglobin assay,visceral leishmaniasis [2]; Day 75,11.6 g/dL
same,Parasite grading,visceral leishmaniasis [2]; Day 75,1
same,Spleen size,visceral leishmaniasis [2]; Day 75,5 cm
same,Temp,visceral leishmaniasis [2]; Day 75,36.9 °C
same,Weight,visceral leishmaniasis [2]; Day 75,36.7 kg
same,ALAT (Alanine aminotransferase),[4]; Day 0,25.4 I.U./l
same,ALP (Alkaline phosphatase),[4]; Day 0,87.6 I.U./l
same,ASAT (Aspartate aminotransferase),[4]; Day 0,20.2 I.U./l
same,Albumin,[4]; Day 0,31.3 g/L
same,BUN assay,[4]; Day 0,8.2 mmol/L
same,Bilirubin,[4]; Day 0,6.4 µmol/L
same,Creatinine,[4]; Day 0,73.6 µmol/L
same,ALAT (Alanine aminotransferase),[4]; Day 10,24.0 I.U./l
same,ALP (Alkaline phosphatase),[4]; Day 10,79.1 I.U./l
same,ASAT (Aspartate aminotransferase),[4]; Day 10,19.2 I.U./l
same,Albumin,[4]; Day 10,30.3 g/L
same,BUN assay,[4]; Day 10,8.1 mmol/L
same,Bilirubin,[4]; Day 10,4.1 µmol/L
same,Creatinine,[4]; Day 10,68.0 µmol/L
same,ALAT (Alanine aminotransferase),[4]; Day 20,22.0 I.U./l
same,ALP (Alkaline phosphatase),[4]; Day 20,71.0 I.U./l
same,ASAT (Aspartate aminotransferase),[4]; Day 20,21.0 I.U./l
same,Albumin,[4]; Day 20,29.5 g/L
same,BUN assay,[4]; Day 20,4.0 mmol/L
same,Bilirubin,[4]; Day 20,3.8 µmol/L
same,Creatinine,[4]; Day 20,53.0 µmol/L
same,ALAT (Alanine aminotransferase),[4]; Day 75,25.3 I.U./l
same,ALP (Alkaline phosphatase),[4]; Day 75,83.7 I.U./l
same,ASAT (Aspartate aminotransferase),[4]; Day 75,25.5 I.U./l
same,Albumin,[4]; Day 75,36.6 g/L
same,BUN assay,[4]; Day 75,3.8 mmol/L
same,Bilirubin,[4]; Day 75,4.5 µmol/L
same,Creatinine,[4]; Day 75,73.5 µmol/L
same,ALAT (Alanine aminotransferase),[4]; Day 195,23.0 I.U./l
same,ALP (Alkaline phosphatase),[4]; Day 195,84.0 I.U./l
same,ASAT (Aspartate aminotransferase),[4]; Day 195,22.0 I.U./l
same,Albumin,[4]; Day 195,40.0 g/L
same,BUN assay,[4]; Day 195,4.0 mmol/L
same,Bilirubin,[4]; Day 195,4.0 µmol/L
same,Creatinine,[4]; Day 195,78.9 µmol/L
same,"Adverse effects, %",[3]; in vivo,27%
same,"Adverse effects, No.",[3]; in vivo,3 No.
same,"bouts of pneumonia, cases",[3]; in vivo,5 cases
same,side effects (in words),[3]; in vivo,distinctly more side effects
same,antibiotic treatment needed for pneumonia,[3]; patients with pneumonia,required antibiotic treatment
same,cure rate,visceral leishmaniasis [5],about 80%
vitamin K,incidence of epistaxis,"[3]; vitamin K 10 mg daily for 5 days, low initial haemoglobin and prolonged prothrombin time",significantly reduced
